From ChEMBL document CHEMBL1201862, “PubChem BioAssay data set” (2004)
The source made the active and inactive calls.

Tests used:
Vero [1] = test: Vero cell viability after compound exposure – synthesized analogs, set II, cytotoxicity control for West Nile virus antiviral project, SAR follow-up (AID 2402); assay type: functional; settings: Chlorocebus sabaeus
Vero [2] = test: host cell viability loss, Vero E6 – synthesized analogs, cytotoxicity control for West Nile virus antiviral project, SAR follow-up (AID 2244); assay type: functional; settings: Chlorocebus sabaeus
[3] = target: Lysosomal acid glucosylceramidase (Homo sapiens, UniProt P04062); test: Dose response cell-based high throughput screening assay to identify enhancers of beta-glucosidase activity. [Related pubchem assays: 784 ]; assay type: functional
[4] = target: Intestinal-type alkaline phosphatase (Homo sapiens, UniProt P09923); test: Dose Response confirmation of uHTS hits from a small molecule inhibitors of human intestinal alkaline phosphatase via a luminescent assay. [Related pubchem assays (depositor defined):AID2544, AID2574]; assay type: functional
[5] = target: T1, Voltage-dependent T-type calcium channel subunit alpha-1H (Homo sapiens, UniProt O95180); test: Inhibitors of T-Type Calcium Channels. [Related pubchem assays (depositor defined):AID449739, AID463087, AID489005, AID493041, AID504579, AID504584, AID504619, AID504628]; assay type: functional
[6] = target: T1, Voltage-dependent T-type calcium channel subunit alpha-1H; assay type: functional
[7] = target: T2, Heat shock factor protein 1 (Mus musculus, UniProt P38532); test: decrease of HSF1-responsive luciferase luminescence – cell-based, NIH3T3, dose retest, confirmation (AID 2382); assay type: functional;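 further: NIH3T3 fibroblasts with HSF1-driven luciferase reporter stressed by proteasome inhibitor MG132; luminescence from HSF1-driven luciferase expression after 8 hours of MG132 stress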
T2 sequence (P38532 whole entry): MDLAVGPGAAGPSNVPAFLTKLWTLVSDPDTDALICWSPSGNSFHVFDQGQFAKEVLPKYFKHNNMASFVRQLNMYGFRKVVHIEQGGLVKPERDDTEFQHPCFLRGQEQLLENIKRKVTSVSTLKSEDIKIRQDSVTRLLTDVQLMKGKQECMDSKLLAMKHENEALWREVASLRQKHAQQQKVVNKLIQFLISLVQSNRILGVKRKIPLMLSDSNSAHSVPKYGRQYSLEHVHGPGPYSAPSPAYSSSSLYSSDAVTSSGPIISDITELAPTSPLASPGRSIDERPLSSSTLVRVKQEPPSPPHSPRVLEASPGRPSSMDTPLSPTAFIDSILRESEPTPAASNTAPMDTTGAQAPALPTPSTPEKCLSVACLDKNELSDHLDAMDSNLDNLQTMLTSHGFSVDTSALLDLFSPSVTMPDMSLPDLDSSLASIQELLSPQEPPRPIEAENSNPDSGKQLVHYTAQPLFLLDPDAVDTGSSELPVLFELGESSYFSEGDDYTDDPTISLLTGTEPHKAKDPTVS

[8] = target: T3, Kappa-type opioid receptor (Homo sapiens, UniProt P41145); assay type: functional
Beta-galactosidase = Beta-galactosidase (Escherichia coli, UniProt Q8VNN2); assay type: functional
[9] = target: T3, Kappa-type opioid receptor; assay type: functional; remark: listed apart in the source
Procathepsin L = Procathepsin L (Homo sapiens, UniProt P07711)
Aspartyl aminopeptidase = Aspartyl aminopeptidase (Plasmodium falciparum 3D7, UniProt Q8I2J3)
Cytochrome P450 2C19 = Cytochrome P450 2C19 (Homo sapiens, UniProt P33261); test: Cytochrome panel assay with activity outcomes. Panel member name: p450-cyp2c19 Compounds with AC50 equal or less than 10 uM are considered active; assay type: functional; settings: read-out: AC50
[10] = target: T4, Alkaline phosphatase, tissue-nonspecific isozyme (Homo sapiens, UniProt P05186)
T4 sequence (P05186 whole entry): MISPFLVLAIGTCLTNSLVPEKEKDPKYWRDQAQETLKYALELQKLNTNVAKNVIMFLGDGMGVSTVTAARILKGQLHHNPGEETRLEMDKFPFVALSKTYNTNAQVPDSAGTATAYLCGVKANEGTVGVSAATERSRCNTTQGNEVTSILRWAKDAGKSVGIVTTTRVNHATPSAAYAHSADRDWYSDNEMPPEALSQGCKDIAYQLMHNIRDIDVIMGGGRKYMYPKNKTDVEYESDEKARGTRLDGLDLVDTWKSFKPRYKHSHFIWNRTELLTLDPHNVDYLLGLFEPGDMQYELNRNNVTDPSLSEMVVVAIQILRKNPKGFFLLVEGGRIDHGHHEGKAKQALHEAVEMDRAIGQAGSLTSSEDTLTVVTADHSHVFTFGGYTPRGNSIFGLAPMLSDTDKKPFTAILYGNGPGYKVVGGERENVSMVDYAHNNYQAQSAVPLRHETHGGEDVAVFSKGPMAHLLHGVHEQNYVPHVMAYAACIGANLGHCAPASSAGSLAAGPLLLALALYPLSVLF

Cytochrome P450 2D6 = Cytochrome P450 2D6 (Homo sapiens, UniProt P10635);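 further: CYP2D6 member of a cytochrome P450 panel assay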
Cytochrome P450 1A2 = target: T5, Cytochrome P450 1A2 (Homo sapiens, UniProt P05177);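 further: PubChem cytochrome P450 panel assay, CYP1A2 panel member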
T5 sequence (P05177 whole entry): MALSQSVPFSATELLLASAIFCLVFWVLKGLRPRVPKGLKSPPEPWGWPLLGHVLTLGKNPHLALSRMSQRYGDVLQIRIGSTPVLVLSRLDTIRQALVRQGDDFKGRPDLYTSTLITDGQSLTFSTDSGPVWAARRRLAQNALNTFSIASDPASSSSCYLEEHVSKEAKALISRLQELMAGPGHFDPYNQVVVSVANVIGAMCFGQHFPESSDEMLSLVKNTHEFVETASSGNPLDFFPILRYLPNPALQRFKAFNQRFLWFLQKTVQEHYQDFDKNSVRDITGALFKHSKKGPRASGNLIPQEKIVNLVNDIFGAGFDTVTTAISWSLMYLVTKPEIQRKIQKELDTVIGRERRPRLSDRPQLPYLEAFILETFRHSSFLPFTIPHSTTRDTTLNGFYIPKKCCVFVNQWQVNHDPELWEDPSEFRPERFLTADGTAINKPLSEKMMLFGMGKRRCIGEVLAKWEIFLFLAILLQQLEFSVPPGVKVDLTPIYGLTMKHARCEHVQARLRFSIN

Cytochrome P450 2C9 = Cytochrome P450 2C9 (Homo sapiens, UniProt P11712)
[11] = target: T6, Calpain-2 catalytic subunit (Sus scrofa, UniProt P43367); test: m-calpain protease blockers, concentration series – biochemical, fluorogenic peptide substrate, dose response (AID 1420); assay type: functional
T6 sequence (P43367 whole entry): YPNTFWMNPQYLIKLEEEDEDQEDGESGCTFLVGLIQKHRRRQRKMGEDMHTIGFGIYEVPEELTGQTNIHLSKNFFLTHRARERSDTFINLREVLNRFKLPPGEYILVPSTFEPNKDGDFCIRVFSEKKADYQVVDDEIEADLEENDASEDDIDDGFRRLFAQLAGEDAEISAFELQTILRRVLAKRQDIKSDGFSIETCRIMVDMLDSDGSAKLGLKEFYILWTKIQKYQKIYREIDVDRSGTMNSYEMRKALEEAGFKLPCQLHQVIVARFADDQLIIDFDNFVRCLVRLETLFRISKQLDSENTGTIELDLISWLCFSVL

[12] = (§1) Counterscreen for antagonists of the orexin 1 receptor (OX1R; HCRTR1): Fluorescence-based cell-based high throughput dose response assay to identify antagonists of the parental CHO cell line. [Related pubchem assays (depositor defined):AID434989, AID435008, AID463079, AID485270, AID492963, AID492964, AID492965, AID493232, AID504699, AID504701]; assay type: functional
Orexin receptor type 2 [13] = target: T7, Orexin receptor type 2 (Homo sapiens, UniProt O43614); test: Counterscreen assay for antagonists of the orexin 1 receptor (OX1R; HCRTR1): Fluorescence-based cell-based dose response assay for antagonists of the orexin 2 receptor (OX2R; HCRTR2), run by assay provider.; assay type: functional
T7 sequence (O43614 whole entry): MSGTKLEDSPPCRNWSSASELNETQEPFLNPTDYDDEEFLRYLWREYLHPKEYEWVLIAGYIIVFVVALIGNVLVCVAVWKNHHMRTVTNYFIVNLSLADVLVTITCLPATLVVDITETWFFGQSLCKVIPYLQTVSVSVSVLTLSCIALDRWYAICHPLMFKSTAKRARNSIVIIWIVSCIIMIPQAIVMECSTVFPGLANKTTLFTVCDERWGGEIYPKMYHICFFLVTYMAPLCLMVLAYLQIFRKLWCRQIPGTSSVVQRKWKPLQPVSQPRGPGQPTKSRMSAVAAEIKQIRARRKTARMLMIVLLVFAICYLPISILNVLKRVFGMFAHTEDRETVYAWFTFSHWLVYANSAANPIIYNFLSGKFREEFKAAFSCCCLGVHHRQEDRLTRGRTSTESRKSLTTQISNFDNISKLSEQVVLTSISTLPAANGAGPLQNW

[14] = target: T8, Orexin/Hypocretin receptor type 1 (Homo sapiens, UniProt O43613); test: (§2) Fluorescence-based cell-based high throughput dose response assay for antagonists of the orexin 1 receptor (OX1R; HCRTR1). [Related pubchem assays (depositor defined):AID434989, AID435008, AID463079, AID485270, AID492963, AID492964, AID492965, AID493232, AID504717, AID504718]; assay type: functional
T8 sequence (O43613 whole entry): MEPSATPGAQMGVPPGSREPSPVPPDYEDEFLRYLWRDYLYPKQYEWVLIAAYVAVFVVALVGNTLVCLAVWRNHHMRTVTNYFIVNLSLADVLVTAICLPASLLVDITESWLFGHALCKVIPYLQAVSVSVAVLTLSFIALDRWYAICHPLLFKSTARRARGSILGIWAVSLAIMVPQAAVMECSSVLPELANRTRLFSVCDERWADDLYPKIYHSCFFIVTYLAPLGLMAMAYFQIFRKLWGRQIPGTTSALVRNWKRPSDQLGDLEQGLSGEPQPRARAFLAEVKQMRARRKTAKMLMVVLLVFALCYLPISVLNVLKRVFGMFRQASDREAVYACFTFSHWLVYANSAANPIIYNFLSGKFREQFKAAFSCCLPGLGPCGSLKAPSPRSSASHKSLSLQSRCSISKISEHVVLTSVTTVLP

[15] = target: T8, Orexin/Hypocretin receptor type 1; test: as §2, with “Homogeneous Time Resolved Fluorescence (HTRF)-based” for “Fluorescence-based”; assay type: functional
Orexin receptor type 2 [16] = target: T7, Orexin receptor type 2; test: Counterscreen assay for antagonists of the orexin 1 receptor (OX1R; HCRTR1): Homogeneous Time Resolved Fluorescence (HTRF)-based cell-based dose response assay for antagonists of the orexin 2 receptor (OX2R; HCRTR2), run by assay provider.; assay type: functional
[17] = A Cell Based Secondary Assay To Explore Cytotoxicity of Compounds that Sensitize Mycobacterium Tuberculosis to Beta-Lactam Antibiotics.; assay type: functional
CHO-K1 = test: as §1, with “Homogeneous time resolved fluorescence (HTRF)-based” for “Fluorescence-based”, “cell-based” for “cell-based high throughput”, “CHO-K1” for “CHO”; assay type: functional; settings: Cricetulus griseus;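 further: potency for inhibition of ATP-stimulated IP1 production as antagonists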
[18] = target: Peroxisome proliferator-activated receptor gamma/Nuclear receptor coactivator 3 (Homo sapiens, UniProt P37231); assay type: functional;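 further: agonist potency for raising coactivator recruitment to the receptor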
[19] = target: Peroxisome proliferator-activated receptor gamma/Nuclear receptor coactivator 2 (Homo sapiens, UniProt P37231); assay type: functional;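 further: agonist potency for raising coactivator recruitment to the receptor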
[20] = target: Peroxisome proliferator-activated receptor gamma/Nuclear receptor coactivator 1 (Homo sapiens, UniProt P37231); assay type: functional;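 further: agonist potency as compounds enhance coactivator SRC-1 recruitment to PPARgamma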

T1 sequence (O95180 whole entry): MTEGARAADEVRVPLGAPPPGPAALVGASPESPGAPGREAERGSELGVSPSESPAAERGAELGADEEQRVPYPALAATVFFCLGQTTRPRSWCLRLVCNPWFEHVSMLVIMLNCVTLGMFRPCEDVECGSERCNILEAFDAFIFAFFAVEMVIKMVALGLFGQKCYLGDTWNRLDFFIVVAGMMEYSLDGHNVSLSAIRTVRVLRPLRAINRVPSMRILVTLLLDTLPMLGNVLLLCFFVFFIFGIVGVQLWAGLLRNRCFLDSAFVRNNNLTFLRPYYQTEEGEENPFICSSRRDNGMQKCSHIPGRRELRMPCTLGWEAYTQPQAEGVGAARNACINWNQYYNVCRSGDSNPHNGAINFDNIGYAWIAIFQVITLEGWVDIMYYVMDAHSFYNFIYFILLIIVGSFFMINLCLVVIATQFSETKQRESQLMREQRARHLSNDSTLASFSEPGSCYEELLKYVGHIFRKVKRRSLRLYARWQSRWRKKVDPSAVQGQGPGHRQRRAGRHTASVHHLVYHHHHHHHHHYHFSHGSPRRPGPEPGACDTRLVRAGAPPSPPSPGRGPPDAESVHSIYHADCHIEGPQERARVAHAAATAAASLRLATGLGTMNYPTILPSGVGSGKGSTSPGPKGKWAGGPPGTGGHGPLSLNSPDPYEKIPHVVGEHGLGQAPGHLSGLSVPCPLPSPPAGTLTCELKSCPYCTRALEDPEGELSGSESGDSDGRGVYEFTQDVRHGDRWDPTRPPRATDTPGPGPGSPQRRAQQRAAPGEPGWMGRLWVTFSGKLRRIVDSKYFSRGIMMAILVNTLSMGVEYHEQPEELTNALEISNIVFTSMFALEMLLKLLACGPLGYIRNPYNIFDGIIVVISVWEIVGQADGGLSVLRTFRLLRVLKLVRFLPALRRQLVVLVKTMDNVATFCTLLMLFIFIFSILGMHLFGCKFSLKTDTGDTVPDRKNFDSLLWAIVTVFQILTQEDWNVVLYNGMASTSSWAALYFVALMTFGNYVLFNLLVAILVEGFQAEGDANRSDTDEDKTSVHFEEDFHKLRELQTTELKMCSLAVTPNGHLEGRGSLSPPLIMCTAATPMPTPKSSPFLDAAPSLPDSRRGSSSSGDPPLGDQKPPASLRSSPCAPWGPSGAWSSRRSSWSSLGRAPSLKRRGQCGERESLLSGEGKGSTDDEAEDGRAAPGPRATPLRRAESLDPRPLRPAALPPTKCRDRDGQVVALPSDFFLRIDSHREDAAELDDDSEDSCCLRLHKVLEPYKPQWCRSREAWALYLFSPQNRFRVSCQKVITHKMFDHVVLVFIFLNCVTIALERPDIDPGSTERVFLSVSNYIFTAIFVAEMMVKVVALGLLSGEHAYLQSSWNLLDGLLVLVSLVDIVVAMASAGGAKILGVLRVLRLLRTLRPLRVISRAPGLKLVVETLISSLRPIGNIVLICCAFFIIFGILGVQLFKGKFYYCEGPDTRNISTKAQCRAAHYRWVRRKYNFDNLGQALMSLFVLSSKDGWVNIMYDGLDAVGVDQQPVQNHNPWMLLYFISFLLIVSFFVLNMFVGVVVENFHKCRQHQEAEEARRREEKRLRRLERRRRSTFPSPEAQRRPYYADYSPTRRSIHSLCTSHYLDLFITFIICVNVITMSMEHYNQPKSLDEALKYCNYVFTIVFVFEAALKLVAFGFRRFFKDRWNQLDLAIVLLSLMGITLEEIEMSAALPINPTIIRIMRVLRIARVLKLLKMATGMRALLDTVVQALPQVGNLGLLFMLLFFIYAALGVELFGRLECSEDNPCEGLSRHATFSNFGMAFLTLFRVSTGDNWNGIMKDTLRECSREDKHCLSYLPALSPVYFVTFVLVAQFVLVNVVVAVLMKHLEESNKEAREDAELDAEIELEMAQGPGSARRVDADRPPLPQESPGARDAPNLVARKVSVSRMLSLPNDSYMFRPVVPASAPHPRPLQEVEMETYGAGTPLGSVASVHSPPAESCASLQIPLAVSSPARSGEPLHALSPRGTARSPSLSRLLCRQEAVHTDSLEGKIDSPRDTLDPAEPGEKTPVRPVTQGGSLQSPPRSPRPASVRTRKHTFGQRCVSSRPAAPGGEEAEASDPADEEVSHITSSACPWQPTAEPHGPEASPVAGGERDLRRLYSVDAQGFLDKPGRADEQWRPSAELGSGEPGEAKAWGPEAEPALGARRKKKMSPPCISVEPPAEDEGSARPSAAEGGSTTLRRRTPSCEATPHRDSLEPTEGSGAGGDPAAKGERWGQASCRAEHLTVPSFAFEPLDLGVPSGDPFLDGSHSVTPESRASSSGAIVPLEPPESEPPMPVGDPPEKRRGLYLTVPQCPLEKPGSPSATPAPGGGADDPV
Sequence of Cytochrome P450 2C9 (P11712 whole entry): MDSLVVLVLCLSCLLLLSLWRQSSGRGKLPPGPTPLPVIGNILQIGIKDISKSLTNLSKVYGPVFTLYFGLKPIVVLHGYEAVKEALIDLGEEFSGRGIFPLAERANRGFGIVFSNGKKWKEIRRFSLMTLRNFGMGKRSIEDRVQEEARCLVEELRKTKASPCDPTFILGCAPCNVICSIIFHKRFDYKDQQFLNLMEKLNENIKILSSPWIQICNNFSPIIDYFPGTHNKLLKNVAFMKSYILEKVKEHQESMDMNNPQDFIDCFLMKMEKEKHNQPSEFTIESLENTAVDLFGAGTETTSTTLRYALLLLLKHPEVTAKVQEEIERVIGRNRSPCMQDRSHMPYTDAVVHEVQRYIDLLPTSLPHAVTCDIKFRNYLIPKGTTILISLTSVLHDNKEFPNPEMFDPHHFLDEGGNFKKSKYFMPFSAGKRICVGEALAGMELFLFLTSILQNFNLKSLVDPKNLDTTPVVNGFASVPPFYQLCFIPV
T3 sequence (P41145 whole entry): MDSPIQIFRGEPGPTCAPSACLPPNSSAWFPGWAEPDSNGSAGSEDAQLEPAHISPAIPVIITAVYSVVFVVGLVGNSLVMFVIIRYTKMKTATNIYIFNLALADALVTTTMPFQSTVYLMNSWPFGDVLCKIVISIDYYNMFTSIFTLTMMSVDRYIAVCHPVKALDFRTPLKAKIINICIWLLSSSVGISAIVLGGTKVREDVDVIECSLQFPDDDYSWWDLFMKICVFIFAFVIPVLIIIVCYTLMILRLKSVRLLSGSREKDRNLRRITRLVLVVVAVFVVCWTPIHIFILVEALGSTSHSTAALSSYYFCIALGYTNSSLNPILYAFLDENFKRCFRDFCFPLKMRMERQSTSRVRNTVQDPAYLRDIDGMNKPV
Sequence of Procathepsin L (P07711 whole entry): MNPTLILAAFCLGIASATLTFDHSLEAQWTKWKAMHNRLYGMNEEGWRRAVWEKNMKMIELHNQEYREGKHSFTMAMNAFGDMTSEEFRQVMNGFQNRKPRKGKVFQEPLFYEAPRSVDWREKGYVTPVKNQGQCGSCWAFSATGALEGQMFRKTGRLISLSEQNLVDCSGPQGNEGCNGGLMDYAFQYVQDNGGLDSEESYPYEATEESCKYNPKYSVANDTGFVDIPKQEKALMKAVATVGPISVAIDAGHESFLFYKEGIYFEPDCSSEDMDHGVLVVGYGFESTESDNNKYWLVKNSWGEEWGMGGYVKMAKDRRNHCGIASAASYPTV
Sequence of Cytochrome P450 2C19 (P33261 whole entry): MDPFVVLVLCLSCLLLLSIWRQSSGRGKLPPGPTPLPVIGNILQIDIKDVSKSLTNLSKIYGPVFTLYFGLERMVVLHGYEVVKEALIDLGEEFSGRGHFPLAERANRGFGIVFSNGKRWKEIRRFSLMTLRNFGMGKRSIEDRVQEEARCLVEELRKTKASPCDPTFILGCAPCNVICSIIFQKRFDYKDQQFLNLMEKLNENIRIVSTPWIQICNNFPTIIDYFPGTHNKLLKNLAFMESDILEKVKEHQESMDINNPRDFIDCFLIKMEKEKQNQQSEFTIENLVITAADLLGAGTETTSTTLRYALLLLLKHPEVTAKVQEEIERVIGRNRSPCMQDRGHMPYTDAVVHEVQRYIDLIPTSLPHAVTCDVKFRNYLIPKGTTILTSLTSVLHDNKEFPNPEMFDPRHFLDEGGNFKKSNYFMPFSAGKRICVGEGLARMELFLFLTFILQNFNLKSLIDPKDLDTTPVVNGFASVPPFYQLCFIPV
Sequence of Lysosomal acid glucosylceramidase (P04062 whole entry): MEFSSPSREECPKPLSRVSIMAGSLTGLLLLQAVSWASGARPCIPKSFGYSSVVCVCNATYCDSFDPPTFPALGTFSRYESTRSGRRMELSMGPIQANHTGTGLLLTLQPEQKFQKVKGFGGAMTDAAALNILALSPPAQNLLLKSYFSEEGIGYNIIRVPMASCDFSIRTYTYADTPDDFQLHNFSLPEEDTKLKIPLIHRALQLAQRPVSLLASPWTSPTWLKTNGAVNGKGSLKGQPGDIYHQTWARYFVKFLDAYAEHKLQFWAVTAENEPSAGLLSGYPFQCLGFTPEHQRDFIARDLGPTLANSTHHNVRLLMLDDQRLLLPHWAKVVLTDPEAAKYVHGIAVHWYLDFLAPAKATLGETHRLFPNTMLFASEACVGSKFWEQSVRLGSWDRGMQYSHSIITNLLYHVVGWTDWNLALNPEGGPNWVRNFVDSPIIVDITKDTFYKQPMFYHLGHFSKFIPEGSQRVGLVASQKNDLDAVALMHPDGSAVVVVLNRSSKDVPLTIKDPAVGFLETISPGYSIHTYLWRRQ

Compound: COc1ccc(-c2csc(N(Cc3ccccc3)C(=O)c3ccccc3Cl)n2)cc1
- CC50 (Vero [1]): > 100 µM (active)
- CC50 (Vero [2]): > 40 µM (active)

Compound: COC(=O)CN1C(=O)C2(OCCCO2)c2cc(Br)ccc21
- EC50 [3]: > 10 µM (not active)

Compound: CC(/C=N/NC(=O)CCn1nnc2ccccc21)=C\c1ccccc1
- IC50 [4]: > 100 µM (inactive)

Compound: Cc1ccc(Cl)cc1N1CCN(C(=O)C2(S(=O)(=O)c3ccc(Cl)cc3)CC2)CC1
- EC50 [5]: 5.26 µM (active)
- EC50 [6]: 0.928 µM (active)

Compound: O=C(N/N=C/c1ccccn1)c1ccc([N+](=O)[O-])cc1
- EC50 [7]: > 195 µM (not active)
- IC50 [8]: > 32 µM
- EC50 (Beta-galactosidase): > 31.5 µM (inactive)
- IC50 [9]: 14.7 µM (active)

Compound: COc1cccc(C(=O)NC(=S)Nn2cnnc2)c1OC
- IC50 (Procathepsin L): > 59.6 µM (not active)
- IC50 (Aspartyl aminopeptidase): 2.08 µM (active)

Compound: COc1ccc2nc(C)cc(SCC(=O)NNC(=O)COc3ccccc3)c2c1
- AC50 (Cytochrome P450 2C19): 3.55 µM (inconclusive)
- EC50 [10]: 79.5 µM (not active)
- AC50 (Cytochrome P450 2D6): 10 µM (inconclusive)
- AC50 (Cytochrome P450 1A2): 10 µM (inconclusive)
- AC50 (Cytochrome P450 2C9): 10 µM (inconclusive)

Compound: O=C(CCCCCCN1C(=O)c2ccccc2C1=O)N1CCC(c2ccccc2)C1 (configuration not stated)
- EC50 [5]: 1.81 µM (active)
- EC50 [6]: 0.624 µM (active)
- EC50 [7]: > 195 µM (not active)
- IC50 [11]: 7.71 µM (active)

Compound: CCn1c2ccccc2c2cc(NC(=O)c3cccc(OC)c3OC)ccc21
- IC50 [12]: > 49.8 µM (inactive)
- IC50 (Orexin receptor type 2 [13]): > 88.8 µM (inactive)
- IC50 [14]: 3.08 µM (active)
- IC50 [15]: 1.7 µM (active)
- IC50 (Orexin receptor type 2 [16]): > 50 µM (inactive)
- CC50 [17]: > 40 µM (active)
- IC50 (CHO-K1): > 66.2 µM (inactive)

Compound: COc1ccc2nc(C)cc(SCC(=O)Nc3c(C)cccc3C)c2c1
- EC50 [18]: > 79.4 µM (not active)
- EC50 [19]: > 79.4 µM (not active)
- EC50 [10]: > 100 µM (not active)
- EC50 [20]: > 79.4 µM (not active)

Compound: Cc1c(Cl)cccc1NC(=O)Nn1cnnc1
- IC50 (Procathepsin L): > 59.6 µM (not active)
- IC50 (Aspartyl aminopeptidase): 1.87 µM (active)

Compound: COc1ccc2c(c1)-c1ccccc1S(=O)(=O)N2C(C)=O
- AC50 (Cytochrome P450 2C19): 25.1 µM (inconclusive)
- EC50 [3]: > 50 µM (not active)
- AC50 (Cytochrome P450 2C9): 12.6 µM (inconclusive)
